Values of other authors, collected in patent US9421272B2, “Nanocarrier compositions and methods” (RUTGERS, THE STATE UNIVERSITY OF NEW JERSEY, priority 2009, dated 2016).

How the values were obtained:
[1] = target: T1, PepT1 (Homo sapiens, UniProt P46059); conditions: interaction between valacyclovir and PepT1
T1 sequence (P46059 1-708): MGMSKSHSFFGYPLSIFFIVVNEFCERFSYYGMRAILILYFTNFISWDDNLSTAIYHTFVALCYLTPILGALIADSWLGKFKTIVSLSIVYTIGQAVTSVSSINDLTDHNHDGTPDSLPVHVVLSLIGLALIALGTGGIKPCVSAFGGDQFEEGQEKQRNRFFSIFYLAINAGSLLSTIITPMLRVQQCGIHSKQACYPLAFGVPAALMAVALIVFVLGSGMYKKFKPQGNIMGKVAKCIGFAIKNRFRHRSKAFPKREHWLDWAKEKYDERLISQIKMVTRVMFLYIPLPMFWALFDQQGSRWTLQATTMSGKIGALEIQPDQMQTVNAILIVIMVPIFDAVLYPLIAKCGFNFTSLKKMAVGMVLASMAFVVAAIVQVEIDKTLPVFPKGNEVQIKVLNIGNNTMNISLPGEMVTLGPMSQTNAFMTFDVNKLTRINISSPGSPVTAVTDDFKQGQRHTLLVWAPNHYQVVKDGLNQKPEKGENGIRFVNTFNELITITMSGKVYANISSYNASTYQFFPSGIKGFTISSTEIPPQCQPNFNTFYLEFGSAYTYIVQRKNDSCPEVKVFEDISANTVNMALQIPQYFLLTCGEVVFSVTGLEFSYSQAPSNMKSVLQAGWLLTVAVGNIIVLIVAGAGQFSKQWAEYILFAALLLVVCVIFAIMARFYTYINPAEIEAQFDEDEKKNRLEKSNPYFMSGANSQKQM

[2] = disulfide bond; relative to cysteamine linker
[3] = compared to the counterpart with a 5 kDa linear PEG

CC(C)[C@H](N)C(=O)OCCOCn1cnc2c(=O)[nH]c(N)nc21 [valacyclovir]
increase in the bioavailability of acyclovir [1]: three to four-fold increase

CC(C)(S)CN [1-amino-2-methyl-2-propanethiol]
degradation rate, slower than the corresponding less hindered cysteamine linker [2]: about 100 times

B1: branched 10 kDa PEG to asparaginase: asparaginase bound to a branched 10 kDa PEG (conjugate, UniProt P00805 23-348, looked up)
L-asparaginase 2: LPNITILATGGTIAGGGDSATKSNYTVGKVGVENLVNAVPQLKDIANVKGEQVVNIGSQDMNDNVWLTLAKKINTDCDKTDGFVITHGTDTMEETAYFLDLTVKCDKPVVMVGAMRPSTSMSADGPFNLYNAVVTAADKASANRGVLVVMNDTVLDGRDVTKTNTTDVATFKSVNYGPLGYIHNGKIDYQRTPARKHTSDTPFDVSKLNELPKVGIVYNYANASDLPAKALVDAGYDGIVSAGVGNGNLYKSVFDTLATAAKTGTAVVRSSRVPTGATTQDAEVDDAKYGFVASGTLNPQKARVLLQLALTQTKDPQQIQQIFNQY
modifications: branched 10 kDa PEG
reduction of antigenicity [3]: 10 fold
